Source: patent US20230414509A1, “HYDROPHOBIC DRUGS IN ORGANIC CORE HIGH DENSITY LIPOPROTEIN (HDL) NANOPARTICLES” (NORTHWESTERN UNIVERSITY, priority 2020, published 2023)
pIC50: −log10 of the molar value.

Columns and labels:
[1] = tested on: HuT78 cells (cutaneous T cell lymphoma); assay: Cytotoxicity IC50, MTS assay, HuT78 cells; type: cell-based; details: Homo sapiens, 72 hours after treatment, read-out: IC-50 values (in nM), HuT78
Procedure: (§1) Specifically, the F7-loaded HDL NPs were tested for cytoxicity against two CTCL cell lines (HH and Hut78), a clear cell renal cell carcinoma cell line (786-O), an anaplastic large cell lymphoma (ALCL) cell line (SR-786), a breast adenocarcinoma cell line (MDA MB 231), a T-cell lymphoma cell line (Jurkat), a myeloma cell line (U266B1), and six prostate cancer cell lines (PC-3, Du-145, CWRR1 WT (wild-type), CWRR1 EnzR (Enzalutamide resistant), LnCap WT (wild type), and LnCap EnzR (Enzalutamide resistant)). The HH and HuT78 cell lines are SR-B1 positive and express p38γ. The SR-786, 786-O, and MDA MB 231 cell lines are also known to be SR-B1 positive. […] The PC-3 and Du-145 cell lines are SR-B1 positive, androgen receptor negative and PTEN null. The CWRR1 WT cell line is SR-B1 positive, androgen receptor positive and PTEN wild type. The CWRR1 EnzR, which is also SR-B1 positive, androgen receptor positive and PTEN wild type, is a prostate cancer cell line derived from patient with castration recurrent disease that is resistant to enzalutamide (a commonly used therapy for castration-resistant prostate cancer patients). The LnCap WT cell line is SR-B1 positive, androgen receptor positive and PTEN null. The LnCap EnzR, which is also SR-B1 positive, androgen receptor positive and PTEN null, is a prostate cancer cell line derived from a lymph node metastasis that is resistant to enzalutamide. […]

[2] = tested on: HH cells (cutaneous T cell lymphoma); assay: Cytotoxicity IC50, MTS assay, HH cells; type: cell-based; details: Homo sapiens, 72 hours after treatment, read-out: IC-50 values (in nM), HH
Procedure: as §1

[3] = tested on: LnCap EnzR cells (prostate cancer, Enzalutamide resistant); assay: Cytotoxicity IC50, MTS assay, LnCap EnzR cells; type: cell-based; details: Homo sapiens, 72 hours after treatment, read-out: IC-50 values (in nM), LnCap EnzR
Procedure: as §1

[4] = tested on: SR-786 cells (anaplastic large cell lymphoma); assay: Cytotoxicity IC50, MTS assay, SR-786 cells; type: cell-based; details: 72 hours after treatment, read-out: IC-50 values (in nM), SR-786
Procedure: as §1

[5] = tested on: Jurkat cells (T-cell lymphoma); assay: Cytotoxicity IC50, MTS assay, Jurkat cells; type: cell-based; details: Homo sapiens, Jurkat cells (SR-B1 negative), 72 hours after treatment, read-out: IC-50 values (in nM), Jurkat
Procedure: as §1

[6] = tested on: HH cell line (SR-B1 positive); assay: 2 hr pulse treatment, MTS viability, SR-B1 positive HH cell line; type: cell-based; details: free F7 250 nM or 2.5 μM for 2 hrs, washed, 72 hours, MTS assay
Procedure: (§2) Following treatment, the cells were washed with fresh media and plated into 96-well plates. The cells were then incubated for 72 hours prior to viability assay (MTS assay).

[7] = tested on: CWRR1 EnzR cells (prostate cancer, Enzalutamide resistant); assay: Cytotoxicity IC50, MTS assay, CWRR1 EnzR cells; type: cell-based; details: 72 hours after treatment, read-out: IC-50 values (in nM), CWRR1 EnzR
Procedure: as §1

[8] = tested on: MDA MB 231 cells (breast adenocarcinoma); assay: Cytotoxicity IC50, MTS assay, MDA MB 231 cells; type: cell-based; details: Homo sapiens, 72 hours after treatment, read-out: IC-50 values (in nM), MDA MB 231
Procedure: as §1

[9] = tested on: 786-O cells (clear cell renal cell carcinoma); assay: Cytotoxicity IC50, MTS assay, 786-O cells; type: cell-based; details: Homo sapiens, 786-0, 72 hours after treatment, read-out: IC-50 values (in nM), 786-O
Procedure: as §1

[10] = tested on: PC-3 cells (prostate cancer); assay: Cytotoxicity IC50, MTS assay, PC-3 cells; type: cell-based; details: Homo sapiens, 72 hours after treatment, read-out: IC-50 values (in nM), PC-3
Procedure: as §1

[11] = tested on: 780 cells (renal cancer); assay: Cytotoxicity IC50 in renal cancer cell line 780; type: cell-based
Procedure: (§3) A database analysis was performed and a survival curve for the renal cancer was found showing a separation (p=0.000084) among summarized 877 renal cancer patients by p38γ gene expression level (high vs low). […] All 8 renal cancer cell lines have higher p38γ protein expression level than that of normal HK2 renal cells by western blot experiments (FIG. 3B).

[12] = tested on: LnCap WT cells (prostate cancer); assay: Cytotoxicity IC50, MTS assay, LnCap WT cells; type: cell-based; details: Homo sapiens, 72 hours after treatment, read-out: IC-50 values (in nM), LnCap WT
Procedure: as §1

[13] = tested on: ACHN cells (renal cancer); assay: Cytotoxicity IC50 in renal cancer cell line ACHN; type: cell-based; details: Homo sapiens
Procedure: as §3

[14] = tested on: CWRR1 WT cells (prostate cancer); assay: Cytotoxicity IC50, MTS assay, CWRR1 WT cells; type: cell-based; details: 72 hours after treatment, read-out: IC-50 values (in nM), CWRR1 WT
Procedure: as §1

[15] = tested on: Hut78 cells; assay: Cytotoxic impact of F7 on Hut78 cells (screening); type: cell-based; details: Homo sapiens
Text: Cutaneous T cell lymphoma (CTCL) is a disfiguring and aggressive cancer. For patients with advanced disease, current therapies are inadequate, and outcome is poor. Incomplete understanding of CTCL molecular regulators has limited development of effective targeted therapies. One candidate regulator is p38gamma (p38γ), a mitogen-activated protein kinase downstream from the T cell receptor that is crucial for T cell activity and growth. […] In addition, only p38γ has been identified as essential protein for CTCL growth among the four p38 isoforms by gene knockdown experiments, which makes p38γ an ideal target for the therapeutic drug development in this particular T cell lymphoma.

[16] = tested on: HepG2 cells; assay: Cell-based toxicity screen, HepG2 cells, MTS viability; details: F7 1 μM for 2 hrs, washed, 72 hours, MTS assay
[17] = tested on: U266B1 cells (myeloma); assay: Cytotoxicity IC50, MTS assay, U266B1 cells; type: cell-based; details: U266B1 cells (SR-B1 negative), 72 hours after treatment, read-out: IC-50 values (in nM), U266B1
Procedure: as §1

[18] = tested on: Du-145 cells (prostate cancer); assay: Cytotoxicity IC50, MTS assay, Du-145 cells; type: cell-based; details: Homo sapiens, 72 hours after treatment, read-out: IC-50 values (in nM), Du-145
Procedure: as §1

[19] = tested on: U266B1 cell line (SR-B1 negative); assay: 2 hr pulse treatment, MTS viability, SR-B1 negative U266B1 cell line; type: cell-based; details: free F7 250 nM or 2.5 μM for 2 hrs, washed, 72 hours, MTS assay
Procedure: as §2

Compound `Cc1ccc([N+](=O)[O-])cc1S(=O)(=O)N(C)/N=C/c1cnc2ccc(Br)cn12.Cl` [F7, PIK75] has an IC50 [1] of 45.6 nM, an IC50 [2] of 41.3 nM and an IC50 [3] of 75.5 nM. The IC50 [4] was 12.6 nM, the IC50 [5] was 116 nM and the “cytotoxicity, HH cell line, free F7” value [6] was “unable to cause cytotoxicity”. It also gave an IC50 [7] of 24.7 nM, an IC50 [8] of 688 nM and an IC50 [9] of 283 nM. The IC50 [10] was 28.1 nM, the pIC50 [11] was 7.48 and the IC50 [12] was 53 nM. For the same compound, the pIC50 [13] was 7.77, the IC50 [14] was 15.9 nM and the pIC50 [15] was 7.48. For the same compound, the “cytotoxicity, HepG2 cells, free F7” value [16] was “mild levels of cytotoxicity”, the IC50 [17] was 44.1 nM and the IC50 [18] was 84.7 nM. The “cytotoxicity, U266B1 cell line, free F7” value [19] was “unable to cause cytotoxicity”.
